Reference: the supplement of paper PMC10307832

Legend:
Experiment in all cases: relative viability (nuclei count vs DMSO), 5 days (fraction); higher = more cells survive
[1] = compound: C[C@]1(O)C[C@@H](c2nc(-c3ccc4ccc(-c5ccccc5)nc4c3)c3c(N)nccn32)C1 [Linsitinib] + Cc1cc(Nc2cc(N3CCN(C)CC3)nc(Sc3ccc(NC(=O)C4CC4)cc3)n2)n[nH]1 [Tozasertib] (partner 0.1 µM)
Outline: (§1)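 Lung cancer cell lines in 1536-well plates were dosed by pin tool the day after seeding, either with one drug alone or with a fixed anchor-drug dose plus five library-drug doses (not always all listed) in √10 steps. After 5 days, cells were fixed and their nuclei stained in one step (final 0.05% Triton X-100, 1% formaldehyde, 1 ug/ml Hoechst), then counted on 4× images. Relative viability is the nuclei count in treated wells divided by that in vehicle wells. Values are medians of duplicate plates.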

[2] = compound: Cc1ccc(C(=O)N(CCCN)[C@@H](c2nc3cc(Cl)ccc3c(=O)n2Cc2ccccc2)C(C)C)cc1 [Ispinesib] + CC1(C)CCC(c2ccc(Cl)cc2)=C(CN2CCN(c3ccc(C(=O)NS(=O)(=O)c4ccc(N[C@H](CCN5CCOCC5)CSc5ccccc5)c(S(=O)(=O)C(F)(F)F)c4)cc3)CC2)C1 [Navitoclax] (partner 0.5 µM)
Outline: as §1

[3] = compound: Cc1ccc(C(=O)N(CCCN)[C@@H](c2nc3cc(Cl)ccc3c(=O)n2Cc2ccccc2)C(C)C)cc1 [Ispinesib] + O=C(c1cc(Cc2n[nH]c(=O)c3ccccc23)ccc1F)N1CCN(C(=O)C2CC2)CC1 [Olaparib] (partner 8 µM)
Outline: as §1

[4] = compound: C[C@]1(O)C[C@@H](c2nc(-c3ccc4ccc(-c5ccccc5)nc4c3)c3c(N)nccn32)C1 [Linsitinib] + Cc1nc(NC(=O)N2CCC[C@H]2C(N)=O)sc1-c1ccnc(C(C)(C)C(F)(F)F)c1 [Alpelisib] (partner 2 µM)
Outline: as §1

Cell Line	relative viability ([1]; first compound 0.01 µM)	relative viability ([1]; first compound 0.03162 µM)	relative viability ([1]; first compound 0.1 µM)	relative viability ([1]; first compound 0.3162 µM)	relative viability ([1]; first compound 1 µM)	relative viability ([2]; first compound 0.001 µM)	relative viability ([2]; first compound 0.003162 µM)	relative viability ([2]; first compound 0.01 µM)	relative viability ([2]; first compound 0.03162 µM)	relative viability ([2]; first compound 0.1 µM)	relative viability ([3]; first compound 0.001 µM)	relative viability ([3]; first compound 0.003162 µM)	relative viability ([3]; first compound 0.01 µM)	relative viability ([3]; first compound 0.03162 µM)	relative viability ([3]; first compound 0.1 µM)	relative viability ([4]; first compound 0.01 µM)	relative viability ([4]; first compound 0.03162 µM)	relative viability ([4]; first compound 0.1 µM)	relative viability ([4]; first compound 0.3162 µM)	relative viability ([4]; first compound 1 µM)
ChaGo-K-1	0.208	0.184	0.221	0.227	0.2	1.11	1.45	0.995	0.732	0.335	0.399	0.449	0.431	0.445	0.382					
COR-L 105	0.421	0.324	0.356	0.298	0.309	0.722	0.824	0.676	0.464	0.345	0.578	0.667	0.579	0.411	0.51	0.843	0.869	1.01	0.761	0.829
NCI-H1944	0.247	0.256	0.235	0.209	0.221	0.994	1.09	1.02	0.785	0.806	0.436	0.454	0.491	0.418	0.406	0.753	0.962	0.865	0.918	0.801
NCI-H2009	0.72	0.63	0.743		0.629	1.28	1.23	1.32	0.678	0.374	0.735	0.678	0.793	0.859	0.257	1.17	1.17	1.2	1.03	1.13
NCI-H522	0.525	0.516	0.521		0.514						0.634	0.585	0.779	0.571	0.555					
NCI-H1623	0.363	0.445	0.412		0.364															
LCLC-103H	0.534	0.496	0.497	0.472	0.331						0.8	0.888	0.856	0.746	0.775	0.896	0.943	0.975	1.09	0.942
NCI-H358	0.0907	0.0851	0.114	0.0862	0.0939						0.624	0.671	0.761	0.569	0.214	0.794	0.804	0.734	0.471	0.479
ABC-1	0.18	0.164	0.145	0.153	0.171						1.04	0.955	0.838		0.41	0.925	0.726	0.912	0.76	0.719
EBC-1						0.349	0.43	0.246	0.189	0.223	0.772	0.725	0.792	0.669	0.171	0.758	0.841	1.05	0.601	0.814
NCI-H1703						1.2	0.727	0.117	0.0871	0.114	0.601	0.312	0.246	0.127	0.105	0.363		0.346	0.227	0.219
NCI-H1563																0.909	0.924	0.85	0.861	0.928
NCI-H1299						1.02	1.08	1.08	1.01	0.52	1.02	0.993	1.07	0.986	0.478	1.05	1.07	1.12	1.01	1.04
A549						1.34	1.16	1.18	0.0508	0.0539	0.417	0.276	0.37	0.194	0.0705	0.744	0.668	0.634	0.423	0.421
NCI-H2342	0.554	0.54	0.516	0.651	0.412						0.413	0.423	0.423	0.453	0.328					
NCI-H1650	0.412	0.549	0.412	0.323	0.288	1.33	1.32	1.23	0.258	0.25	0.953	0.743	0.82	0.701	0.195					
SW 900	0.635	0.598	0.535	0.513	0.342						0.858	0.889	0.914	0.827	0.418					
NCI-H661	0.361	0.383	0.335	0.308	0.368						0.737	0.848	0.805	0.505	0.255	0.593	0.539	0.46	0.667	0.449
NCI-H1648	0.5	0.697	0.412		0.396						1.04	1.07	0.751	0.889	0.0854					
Calu-6						0.764	0.344	0.173	0.0922	0.12	0.56		0.422	0.193	0.192	1.01	0.919	1.04	1.03	0.794
